Values after ≈ are worked out from the molar mass of the structure shown. Like-named read-outs stand apart in the source and are kept apart here. Blank lines part the entries; values can stand above or below the molecule they belong to.
Columns and labels:
[1] = physchem; conditions: dehydrated ethanol, 25 °C, organic solvent or mixture
[2] = Solubility of antineoplastic drugs in biocompatible pharmaceutical solvents
[3] = Kinematic viscosity measurement of solvents; assay type: physicochemical; conditions: 25 ° C.
[4] = cited from earlier work
[5] = system: subcutaneous transplantation of tumors; conditions: for Survival of group after drug administration (mice alive): 11 mice at day 0;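 on all read-outs here: nude mice carrying subcutaneous right axillary tumor cell grafts, tumor volume computed as ab^2/2, negative control given blank solvent intratumorally, animals checked daily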
Experimental: After three generations of resuscitation, cells in logarithmic growth phase were digested and suspended in complete medium. The number of cells was calculated, with the number of cells expected to be over 3×10^7/ml. The right axillary part of nude mice was disinfected by alcohol. The cell suspension was injected subcutaneously with a dose of 0.15 ml. After injection, a round translucent liquid bubble bulged up. The state of the nude mice and the growth of tumors were observed every day after injection. […] The successful nude mice were randomly divided into four groups: 11 in the positive control group, 11 in the high dose group, 11 in the low dose group and 12 in the negative control group. After grouping, intravenous injection was administered in the positive control group, with the other groups administered different tested product or blank solvent by intratumoral injection.
The longest diameter a (mm) and the shortest diameter b (mm) of tumors were measured by electronic Vernier caliper. The tumor volume of nude mice was calculated by formula: TV=ab^2/2, and the relative tumor volume (RTV) was acquired as RTV=V t/Vo. Vo was the volume of tumors before injection and V t was used to measure the volume of tumors some days after first injection. […] The mice were killed 21 days after injection for ethical reasons.

[6] = Medium Chain Triglycerides, 25 °C, oil or lipid
[7] = N-N dimethylacetylamide, 25 °C, organic solvent or mixture
[8] = PEG-400, 25 °C, organic solvent or mixture
[9] = PEG-400, 110 °C, organic solvent or mixture
[10] = Tween-80, 25 °C, organic solvent or mixture
[11] = glycerin, 25 °C, organic solvent or mixture
[12] = soybean oil, 25 °C, oil or lipid
[13] = PEG-300, 25 °C, organic solvent or mixture

solubility [1]: 118000 to 126000 µg/mL (≈ 147 to 156 mM)
solubility [2, 6]: < 10000 µg/mL
solubility ([2]; Medium Chain Triglycerides, 105 °C, oil or lipid): 30000 to 35000 µg/mL (≈ 37.1 to 43.3 mM)
solubility [2, 7]: > 50000 µg/mL
solubility [2, 8]: < 10000 µg/mL
solubility [2, 9]: > 40000 µg/mL
solubility [2, 10]: < 40000 µg/mL
solubility ([2]; Tween-80, 120 °C, organic solvent or mixture): > 40000 µg/mL
solubility [2, 11]: < 1000 µg/mL
solubility [2, 12]: < 10000 µg/mL
solubility ([2]; soybean oil, 140 °C, oil or lipid): 12500 to 15000 µg/mL (≈ 15.5 to 18.6 mM)
SMILES: CC(=O)O[C@@]12CO[C@@H]1C[C@H](O)[C@@]1(C)C(=O)[C@H](O)C3=C(C)[C@@H](OC(=O)[C@H](O)[C@@H](NC(=O)OC(C)(C)C)c4ccccc4)C[C@@](O)([C@@H](OC(=O)c4ccccc4)[C@H]21)C3(C)C [Docetaxel]

Kinematic viscosity measurement [3]: 908.8 mm^2/s
SMILES: OCC(O)CO [Glycerol]

solubility [1]: < 130 µg/mL
solubility [2, 6]: < 200 µg/mL
solubility ([2]; Medium Chain Triglycerides, 200 °C, oil or lipid): < 200 µg/mL
solubility [2, 7]: > 105000 µg/mL
solubility [2, 13]: < 10000 µg/mL
solubility ([2]; PEG-300, 140 °C, organic solvent or mixture): > 50000 µg/mL
solubility [2, 10]: < 1700 µg/mL
solubility [2, 11]: < 1000 µg/mL
SMILES: COc1cc([C@@H]2c3cc4c(cc3[C@@H](O[C@@H]3O[C@@H]5CO[C@@H](c6cccs6)O[C@H]5[C@H](O)[C@H]3O)[C@H]3COC(=O)[C@H]23)OCO4)cc(OC)c1O [Teniposide]

Kinematic viscosity measurement [3]: 1.41 mm^2/s
SMILES: CCO [Dehydrated ethanol]

The remaining lines, values behind:

SMILES: CC(=O)O[C@H]1C(=O)[C@@]2(C)[C@H]([C@H](OC(=O)c3ccccc3)[C@]3(O)C[C@H](OC(=O)[C@H](O)[C@@H](NC(=O)c4ccccc4)c4ccccc4)C(C)=C1C3(C)C)[C@]1(OC(C)=O)CO[C@@H]1C[C@@H]2O [Paclitaxel]
solubility [1]: > 6000 µg/mL
intravenous LD50 ([4]; mice): 12 mg/kg
solubility [2, 6]: < 6000 µg/mL
solubility ([2]; Medium Chain Triglycerides, 120 °C, oil or lipid): > 6000 µg/mL
solubility [2, 7]: > 50000 µg/mL
solubility [2, 8]: < 40000 µg/mL
solubility [2, 9]: > 40000 µg/mL
solubility [2, 10]: < 6000 µg/mL
solubility ([2]; Tween-80, 110 °C, organic solvent or mixture): > 6000 µg/mL
solubility [2, 11]: < 1000 µg/mL
solubility [2, 12]: < 6000 µg/mL
solubility ([2]; soybean oil, 145 °C, oil or lipid): > 6000 µg/mL

SMILES: CC[C@@]1(O)C(=O)OCc2c1cc1n(c2=O)Cc2cc3cc(O)ccc3nc2-1 [Hydroxycamptothecine]
solubility [1]: < 1000 µg/mL
solubility [2, 6]: < 1000 µg/mL
solubility [2, 7]: ~71400 µg/mL (≈ 196 mM)
solubility [2, 13]: < 10000 µg/mL
solubility ([2]; PEG-300, 90 °C, organic solvent or mixture): > 10000 µg/mL
solubility [2, 10]: < 1000 µg/mL
solubility [2, 11]: < 1000 µg/mL

SMILES: COc1cc([C@@H]2c3cc4c(cc3[C@@H](O[C@@H]3O[C@@H]5CO[C@@H](C)O[C@H]5[C@H](O)[C@H]3O)[C@H]3COC(=O)[C@H]23)OCO4)cc(OC)c1O [etoposide]
Intravenous LD50 of the mice [4]: Intravenous LD50 of the mice: 15 mg/kg
30% ST, LDG/PCG ([5]; 30% survival time, low dose group (intratumoral) to positive control group (intravenous)): 200% (18/9 = 2)
Average Tumor Volume V3 ([5]; High dosage (intratumoral, 55 mg/kg), 3 days after first injection): 268.5 mm^3
Average Tumor Volume V6 ([5]; High dosage (intratumoral, 55 mg/kg), 6 days after first injection): 364.2 mm^3
HV6/NV6, tumor volume relative to negative control ([5]; High dosage (intratumoral, 55 mg/kg), 6 days after injection): HV6/NV6 = 90.2%
Average Tumor Volume V9 ([5]; High dosage (intratumoral, 55 mg/kg), 9 days after first injection): 472.5 mm^3
Average Tumor Volume V11 ([5]; High dosage (intratumoral, 55 mg/kg), 11 days after first injection): 384.0 mm^3
Average Tumor Volume V12 ([5]; High dosage (intratumoral, 55 mg/kg), 12 days after first injection): 276.3 mm^3
HV12/NV, tumor volume relative to negative control ([5]; High dosage (intratumoral, 55 mg/kg), 12 days after injection): HV12/NV = 38.0%
Average Tumor Volume V0 ([5]; High dosage (intratumoral, 55 mg/kg), before injection): 174.4 mm^3
Survival of group after drug administration (mice alive) ([5]; High dosage intratumoral, Day 6): 11
Survival of group after drug administration (mice alive) ([5]; High dosage intratumoral, Day 9): 11
Survival of group after drug administration (mice alive) ([5]; High dosage intratumoral, Day 11): 11
Survival of group after drug administration (mice alive) ([5]; High dosage intratumoral, Day 12): 2
Survival of group after drug administration (mice alive) ([5]; High dosage intratumoral, Day 15): 0
Survival of group after drug administration (mice alive) ([5]; IV. group, Day 6): 11
Survival of group after drug administration (mice alive) ([5]; IV. group, Day 9): 9
Survival of group after drug administration (mice alive) ([5]; IV. group, Day 11): 2
Survival of group after drug administration (mice alive) ([5]; IV. group, Day 12): 0
Survival of group after drug administration (mice alive) ([5]; Low dosage intratumoral, Day 6): 11
Survival of group after drug administration (mice alive) ([5]; Low dosage intratumoral, Day 9): 11
Survival of group after drug administration (mice alive) ([5]; Low dosage intratumoral, Day 11): 11
Survival of group after drug administration (mice alive) ([5]; Low dosage intratumoral, Day 12): 11
Survival of group after drug administration (mice alive) ([5]; Low dosage intratumoral, Day 15): 6
Survival of group after drug administration (mice alive) ([5]; Low dosage intratumoral, Day 18): 4
Survival of group after drug administration (mice alive) ([5]; Low dosage intratumoral, Day 19): 3
Survival of group after drug administration (mice alive) ([5]; Low dosage intratumoral, Day 20): 3
MST ([5]; intravenous group (positive control)): 9 days
outcome of local intratumor injection, in words ([5]; low dosage group): superior to the intravenous injection and the negative control group
mice surviving ([5]; low dosage group (11 mice), 20 days after injection): three
mice still alive ([5]; low dosage group (11 mice), 21 days after first injection): three
MST ([5]; low dosage group, intratumoral injection): 15 days
MST, HDG/PCG ([5]; median survival time, high dose group (intratumoral) to positive control group (intravenous)): 122% (11/9 = 1.22)
LV12/NV (tumor volume, low dose group to negative control group) ([5]; twelve (12) days after injection, intratumoral injection, low dose group): 49.3%

Source: patent US11439586B2, “Intratumour injection formulation” (US Nano Food & Drug INC, priority 2018, dated 2022)
